Measured values from ChEMBL document CHEMBL1146627, “Synthesis and structure-activity relationships of 1-arylmethyl-3-(1-methyl-2-amino)ethyl-5-aryl-6-methyluracils as antagonists of the human GnRH Receptor” (Bioorg Med Chem Lett, 2003).

Target: T1, Gonadotropin-releasing hormone receptor (Homo sapiens, UniProt P30968)
T1 sequence (P30968 whole entry): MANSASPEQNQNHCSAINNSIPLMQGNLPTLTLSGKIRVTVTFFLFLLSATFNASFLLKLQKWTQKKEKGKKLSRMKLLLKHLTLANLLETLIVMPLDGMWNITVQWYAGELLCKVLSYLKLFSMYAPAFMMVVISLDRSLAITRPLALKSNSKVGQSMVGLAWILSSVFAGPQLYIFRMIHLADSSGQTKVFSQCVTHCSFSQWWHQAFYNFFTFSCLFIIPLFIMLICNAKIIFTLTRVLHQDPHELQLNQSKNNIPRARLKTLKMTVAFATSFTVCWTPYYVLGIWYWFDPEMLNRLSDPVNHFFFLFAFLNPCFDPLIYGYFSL
Experiment: Binding affinity towards human gonadotropin-releasing hormone receptor expressed in HEK293 cells
Format: cell-based

Row | SMILES | Ki [nM]
1 | COc1cccc(-c2c(C)n(Cc3c(F)cccc3F)c(=O)n([C@H](C)CNCc3ccc(F)cc3)c2=O)c1 | 250
2 | COc1cccc(-c2c(C)n(Cc3c(F)cccc3F)c(=O)n(C[C@H](C)N(C)CCc3ccccn3)c2=O)c1 | 5
3 | COc1cccc(-c2c(C)n(Cc3c(F)cccc3F)c(=O)n([C@H](C)CNCc3cccc(F)c3)c2=O)c1 | 85
4 | COc1cccc(-c2c(C)n(Cc3c(F)cccc3F)c(=O)n([C@H](C)CNCc3ccccc3F)c2=O)c1 | 90
5 | COc1cccc(-c2c(C)n(Cc3c(F)cccc3F)c(=O)n([C@@H](C)CNCC(C)C)c2=O)c1 | 1200
6 | COc1cccc(-c2c(C)n(Cc3c(F)cccc3F)c(=O)n([C@H](C)CNC3CCCC3)c2=O)c1 | 430
7 | COc1cccc(-c2c(C)n(Cc3c(F)cccc3F)c(=O)n([C@@H](C)CNCc3ccccc3F)c2=O)c1 | 550
8 | COc1cccc(CNC[C@@H](C)n2c(=O)c(-c3cccc(OC)c3)c(C)n(Cc3c(F)cccc3F)c2=O)c1 | 20
9 | COc1cccc(-c2c(C)n(Cc3c(F)cccc3F)c(=O)n([C@@H](C)CN(C)CC3CC3)c2=O)c1 | 7000
10 | COc1cccc(-c2c(C)n(Cc3c(F)cccc3F)c(=O)n([C@@H](C)CN(C)Cc3ccccc3)c2=O)c1 | 2000
11 | COc1cccc(-c2c(C)n(Cc3c(F)cccc3F)c(=O)n([C@@H](C)CNC3CCCC3)c2=O)c1 | 950
12 | COc1cccc(-c2c(C)n(Cc3c(F)cccc3F)c(=O)n([C@H](C)CNCC(C)C)c2=O)c1 | 190
13 | COc1cccc(-c2c(C)n(Cc3c(F)cccc3F)c(=O)n([C@H](C)CN(C)Cc3ccccc3)c2=O)c1 | 150
14 | COc1cccc(-c2c(C)n(Cc3c(F)cccc3F)c(=O)n([C@@H](C)CNCC3CC3)c2=O)c1 | 1600
15 | COc1cccc(-c2c(C)n(Cc3c(F)cccc3F)c(=O)n(C3CCNC3)c2=O)c1 (stereo unspecified) | 15000
16 | COc1cccc(-c2c(C)n(Cc3c(F)cccc3F)c(=O)n(C3CCN(Cc4ccccc4)C3)c2=O)c1 (stereo unspecified) | 280
17 | COc1cccc(-c2c(C)n(Cc3c(F)cccc3F)c(=O)n([C@H](C)CNCC3CC3)c2=O)c1 | 780
18 | COc1cccc(-c2c(C)n(Cc3c(F)cccc3F)c(=O)n([C@H](C)CNCc3ccccc3)c2=O)c1 | 75
19 | COc1cccc(-c2c(C)n(Cc3c(F)cccc3F)c(=O)n([C@H](C)CNCc3ccccc3C)c2=O)c1 | 70
20 | COc1cccc(-c2c(C)n(Cc3c(F)cccc3F)c(=O)n([C@@H](C)CNCc3ccccc3C)c2=O)c1 | 400
21 | COc1cccc(-c2c(C)n(Cc3c(F)cccc3F)c(=O)n([C@H](C)CN(C)CC3CC3)c2=O)c1 | 590
22 | COc1cccc(-c2c(C)n(Cc3c(F)cccc3F)c(=O)n([C@H](C)CN(C)CCc3ccccn3)c2=O)c1 | 20
23 | COc1cccc(-c2c(C)n(Cc3c(F)cccc3F)c(=O)n(C3CCN(CCc4ccccn4)C3)c2=O)c1 (stereo unspecified) | 8300
24 | COc1ccc(CNC[C@@H](C)n2c(=O)c(-c3cccc(OC)c3)c(C)n(Cc3c(F)cccc3F)c2=O)cc1 | 720
25 | COc1cccc(-c2c(C)n(Cc3c(F)cccc3F)c(=O)n([C@@H](C)CN(C)CCc3ccccn3)c2=O)c1 | 1800
26 | COc1cccc(-c2c(C)n(Cc3c(F)cccc3F)c(=O)n([C@@H](C)CNCc3ccccc3)c2=O)c1 | 370
